Measured values taken from patent US9581587B2, “Sperm staining and sorting methods” (INGURAN, LLC, priority 2011, dated 2017).

Assays:
[1] = system: membrane compromised sperm; test: Added dead quenching capacity from bivariate plots (Example 10, FIG. 8); assay type: cell-based, bulls; details: with 25 μM yellow food dye No. 6, red food dye No. 4 at highest tested concentration
Method: (§1) Eight bulls were collected, including 4 Jersey bulls, 3 Holstein bulls and one mixed dairy-breed. The ejaculates were collected at concentrations ranging from 1700×10^6 sperm/ml to 1100×10^6 sperm/ml and all had progressive motility of a least 60%.
Sperm from each bull was extended to 160 million per ml with a first buffer, (TALP described in table 1 at a pH 7.4) and stained with 64 μM (164/2 mL) Hoechst 33342 at 34° C. Additionally, Phenol Red, Red Food Dye No. 2, Red Food Dye No. 3, and Red Food Dye No. 4, were each tested as split enhancing dyes in the first buffer at concentrations of 15 μM, 45 μM and 125 μM. For each bull, each concentration of each dye was incubated for periods of 30 minutes, 45 minutes, 60 minutes, and 75 minutes were utilized before a second buffer with an additional dye was applied. […]
Sorting was performed on a MoFlo SX (Beckman Coulter, USA) in substantially the same manner described in Example 5. After calibration, screen shots of sorting histograms were taken and split quality was measured by peak to valley ratios in the same way described in Example 5 with reference to FIG. 4 and the resulting data, averaged over all 8 bulls, is found in Tables 18-21. […]

sperm [2] = test: Split quality, split enhancing dyes at various concentrations and incubation times (Example 10); assay type: cell-based, bulls; details: for split enhancing effect compared to control: 15, 45, 125 μM, 30-75 minutes, averaged over 8 bulls; for peak to valley ratio, Average 8 bulls: 25 μM yellow food dye No. 6
Method: as §1
Sperm from each bull was extended to 160 million per ml with a first buffer, (TALP described in table 1 at a pH 7.4) and stained with 64 μM (164/2 mL) Hoechst 33342 at 34° C. Additionally, Phenol Red, Red Food Dye No. 2, Red Food Dye No. 3, and Red Food Dye No. 4, were each tested as split enhancing dyes in the first buffer at concentrations of 15 μM, 45 μM and 125 μM. For each bull, each concentration of each dye was incubated for periods of 30 minutes, 45 minutes, 60 minutes, and 75 minutes were utilized before a second buffer with an additional dye was applied.
Each sample was then extended in an equal volume of a second buffer which comprised a 5.5 pH modified TALP having 25 μM yellow food dye No. 6 (acting as a dead quenching dye) in addition to the split enhancing dye provided in the first buffer. The second buffer was applied to every sample at 30 minutes, 45 minutes, 60 minutes, and 75 minutes. A control was additionally taken without any split enhancing dye for every bull at every time interval.
Sorting was performed on a MoFlo SX (Beckman Coulter, USA) in substantially the same manner described in Example 5. After calibration, screen shots of sorting histograms were taken and split quality was measured by peak to valley ratios in the same way described in Example 5 with reference to FIG. 4 and the resulting data, averaged over all 8 bulls, is found in Tables 18-21. Additionally, screen shots of bivariate plots were taken to measure the added dead quenching capacity of the mixed dead quenching and split enhancing dyes.

sperm [3] = test: Split quality PV (Example 6); assay type: cell-based, Jersey bull; details: Hoechst 12 μL/2 mL, resulting pH 6.70
Method: (§2) A single Jersey bull was collected at an initial sperm concentration 1810×10^6 sperm/ml in a volume of 3.9 ml. The progressive motility of the sperm was 65% with normal morphologies greater than 50%.
(§3) Sperm were suspended at 320 million per mL in 30 mL a first buffer, (TALP described in table 1 at a pH 7.4) with 12 μL of Hoechst 33342 per 2 mL (48 μM) of stain and incubated for 1 hour at 34° C. Stained sperm was then placed as 1 mL aliquots in sample tubes and a 1 mL volume of the appropriate TALP was added. The same second buffer was used as example 1, namely a modified 5.60 pH TALP.
(§4) Each of the stained samples was sorted on a MoFlo SX (Beckman Coulter, USA) as described in Example 6. Screen shots were taken and the dead gate intensity and the split quality were measured in the same way described in Example 1 and recorded in TABLE 14.

sperm [4] = test: Split quality, height of peak divided by height of valley (Example 5); assay type: cell-based, Jersey bull; details: Hoechst 16 μL/2 mL
Method: (§5) A single Jersey bull was collected at an initial sperm concentration 1900×10^6 sperm/ml in a volume of 5 ml. The progressive motility of the sperm was 65% with normal morphologies greater than 65%.
(§6) The entire ejaculate of sperm was suspended in first staining buffer, specifically a 7.4 pH TALP described in TABLE 1, to a concentration of 160×10^6 sperm per mL (determined on nucleocounter) and divided into three aliquots of about 20 mL into 50 mL Falcon tubes and pre-warmed for 10 minutes at 34° C. The DNA selective fluorescent dye, Hoechst 33342, was added and samples were held at 34° C. for 60 minutes. 3 different Hoechst 33342 Stain Levels were used=12 μL, 14 μL and 16 μL per 2 mL (effective concentrations of 48 μM, 56 μM, 64 μM).
(§7) Preparation of the second buffer including the dead quenching dye—A 2 L bag of TALP, described in TABLE 1, was adjusted to pH 5.60 using HCl and then sterile filtered. […] For each of the four dyes tested (R40-red food dye No. 40, Y5—yellow food dye No. 5, Y6—yellow food dye No. 6 and PR—phenol red), an appropriate number of milligrams of each powder was placed in a Erlenmeyer Flask and then an exact amount of TALP pH 5.60 was added to create a 250 μM concentration of the dye. The result was a working TALP stock for each dye with a 100% (125 μM) relative amount of dye 50% relative (62.5 μM) and 20% relative (25 μM) solutions were made by dilution of 100% by TALP pH 5.60.
(§8) Single tubes of stained sperm at each of the three Hoechst 33342 concentrations were treated with TALP pH 5.60 which had no dead quenching dye present. Single tubes using Vitamin B12 (red colored chemical) with stock concentration of 15 μM (12% relative) were tested.
(§9) After this “bulk” staining for 60 minutes, 1 mL aliquots of stained sperm were combined with 1 mL aliquots of the second buffer including the dead quenching dyes. Samples sat for approximately 30 minutes at room temperature before being analyzed on a MoFlo SX (Beckman Coulter, USA) sperm sorting flow cytometer. Event rates were held as close to 13,000 as possible at the point of data acquisition.
(§10) The total number of individual treatments was 42 tubes, each containing 2 mL of stained sample. The alignment of the sorter was established using nuclei and confirmed with live sample from the 50% Red 40 series. Once good alignment was established, each tube was placed on the sorter long enough to establish a stabile dead gate population (about 30 seconds) and then a screenshot was taken and saved as a .jpeg image. This approach of rapidly documenting each sample is used to assure the most consistent alignment between all samples. Realignment of sorter will not cause differences in the intensities of live and dead gate populations but will cause differences in split quality.
(§11) FIG. 4 illustrates an example histogram. The ratio of dead gate intensity divided by live gate intensity is created by dividing the distance “A” by the distance “B” shown as a percentage. Lower values mean higher levels of quenching. The ratio of peak height divided by valley height is created by dividing the distance “C” by the distance “D”. A value of 1.00 means “no split” while higher values mean “better splits”.

[5] = system: membrane compromised sperm; test: Dead gate intensity divided by live gate intensity, flow cytometer (Example 5); assay type: cell-based
Method: as §5, §6, §7, §8, §9, §10, §11

[6] = system: membrane compromised sperm; test: Dead gate intensity, yellow 5 and phenol red at higher concentrations (Example 6); assay type: cell-based, Jersey bull; details: for Intensity: Hoechst 12 μL/2 mL
Method: as §2, §3, §4

sperm [7] = test: Split quality, red food dye No. 3 as added split enhancing dye (Example 9); assay type: cell-based, bull; details: with yellow food dye No. 6 or red food dye No. 40 as dead quenching dye
Method: A single bull was collected for the Example 9 in the same way described in Example 5. […] The second buffer was additionally treated with concentrations of 25, 50, 100, 150, 300, or 600 μM of red food dye No. 3, as indicated in Table 6. Sorting was performed on a MoFlo SX (Beckman Coulter, USA) in substantially the same manner described in Example 6. After calibration, screen shots of sorting histograms were taken and the split quality was measured in terms of peak to valley ratios in the same way described in Example 5 with reference to FIG. 4 and the resulting data is found in Table 17.

sperm [8] = details: as dead quenching dye; cited from earlier work
[9] = split enhancing dye 125 μM, 30 Min

O=S(=O)([O-])c1ccc2c(N=Nc3ccc(S(=O)(=O)[O-])c4ccccc34)c(O)c(S(=O)(=O)[O-])cc2c1.[Na+].[Na+].[Na+] [Red 2]
dead quenching capacity in combination with dead quenching dye [1]: strong dead quenching capacity
split enhancing effect compared to control (sperm [2]): did not provide a split enhancing, or noise reducing effect
peak to valley ratio, Average 8 bulls (sperm [2]; split enhancing dye 45 μM, 30 Min): 1.00
peak to valley ratio, Average 8 bulls (sperm [2]; [9]): 1.00
peak to valley ratio, Average 8 bulls (sperm [2]; split enhancing dye 125 μM, 45 Min): 1.00
peak to valley ratio, Average 8 bulls (sperm [2]; split enhancing dye 125 μM, 60 Min): 1.00
peak to valley ratio, Average 8 bulls (sperm [2]; split enhancing dye 125 μM, 75 Min): 1.00

O=C([O-])C1=NN(c2ccc(S(=O)(=O)[O-])cc2)C(=O)/C1=N/Nc1ccc(S(=O)(=O)[O-])cc1.[Na+].[Na+].[Na+] [Yellow 5, Trisodium (4E)-5-oxo-1-(4-sulfonatophenyl)-4-[(4-sulfonatophenyl)hydrazono]-3-pyrazolecarboxylate]
PV (sperm [3]; dye 125 μM): 1.00
PV (sperm [3]; dye 250 μM): 1.00
PV (sperm [3]; dye 500 μM): 1.00
PV (sperm [3]; dye 750 μM): 1.00
PV (sperm [3]; dye 875 μM): 1.00
PV (sperm [3]; dye 1250 μM): 1.00
Height of Peak/Height of Valley (sperm [4]; dye 25 μM): 1.00
Height of Peak/Height of Valley (sperm [4]; dye 62.5 μM): 1.00
Dead Intensity ([5]; dye 25 μM, Average over Hoechst levels): 90%
Dead Intensity ([5]; dye 25 μM, Hoechst 12 μL/2 mL): 90%
Dead Intensity ([5]; dye 25 μM, Hoechst 14 μL/2 mL): 90%
Dead Intensity ([5]; dye 25 μM, Hoechst 16 μL/2 mL): 90%
Dead Intensity ([5]; dye 62.5 μM, Average over Hoechst levels): 74%
Dead Intensity ([5]; dye 62.5 μM, Hoechst 12 μL/2 mL): 74%
Dead Intensity ([5]; dye 62.5 μM, Hoechst 14 μL/2 mL): 77%
Dead Intensity ([5]; dye 62.5 μM, Hoechst 16 μL/2 mL): 70%
Dead Intensity ([5]; dye 125 μM, Average over Hoechst levels): 57%
Dead Intensity ([5]; dye 125 μM, Hoechst 12 μL/2 mL): 54%
Dead Intensity ([5]; dye 125 μM, Hoechst 14 μL/2 mL): 63%
Dead Intensity ([5]; dye 125 μM, Hoechst 16 μL/2 mL): 55%
ability to create a dead gate population (ordering of the four dyes) ([5]; from dead and live intensity data of Table 13): better quenching properties than phenol red
amount of dye needed for a similar dead gate intensity ratio as red food dye No. 40 and yellow food dye No. 6 [6]: about five
Intensity ([6]; dye 125 μM, resulting pH 6.70): 63%
Intensity ([6]; dye 250 μM, resulting pH 6.70): 48%
Intensity ([6]; dye 500 μM, resulting pH 6.70): 43%
Intensity ([6]; dye 750 μM, resulting pH 6.70): <30%
Intensity ([6]; dye 875 μM, resulting pH 6.70): <30%
Intensity ([6]; dye 1250 μM, second buffer pH 5.60, resulting pH 6.70): <30%

Cc1c(C(=O)O)c(O)cc2c1C(=O)c1c(O)c(C3O[C@H](CO)[C@@H](O)[C@H](O)[C@H]3O)c(O)c(O)c1C2=O (stereo in doubt) [Red 4, carmine]
dead quenching capacity in combination with dead quenching dye [1]: significant increase in quenching the dead subpopulation
split enhancing effect compared to control (sperm [2]): provides distinct improvements at all concentrations and at all times

O=C(O)c1ccccc1-c1c2cc(I)c(=O)c(I)c-2oc2c(I)c(O)c(I)cc12 [Red 3, 2-(6-Hydroxy-2,4,5,7-tetraiodo-3-oxo-xanthen-9-yl)benzoic acid]
effect of increasing concentration on split quality (sperm [7]): improved the split quality up to the concentration of 300 μM
split enhancing effect compared to control (sperm [2]): provided initial split enhancements at 15 μM and 45 μM
peak to valley ratio, Average 8 bulls (sperm [2]; [9]): 1.00

CC[N+](C)(CC)CCC[n+]1c(-c2ccccc2)c2cc(N)ccc2c2ccc(N)cc21.[I-].[I-] [propidium iodine]
toxicity to sperm (sperm [8]): toxic to sperm
